The values below are quoted from earlier work in US20110160158A1, “METHODS OF TREATMENT OF BIPOLAR DISORDER” (REPLIGEN CORPORATION, priority 2008, published 2011).

The structures appear in SMILES notation.

Data set [1] deals with children with mitochondrial disease. Particulars: 2 g/m^2 three times daily for up to two years; cited from earlier work.
For data set [2], the system named is patients undergoing chemotherapy with 5-fluorouracil. Particulars: 6 g four times a day; cited from earlier work.

For `CC(=O)OC[C@H]1O[C@@H](n2ccc(=O)[nH]c2=O)[C@H](OC(C)=O)[C@@H]1OC(C)=O` [TAU, Triacetyluridine], the Adverse events result in data set [1] was “no adverse events were reported”. In addition, the Adverse effects result in data set [2] is “no adverse effects”.
